Values of other authors in patent publication US5668134A, “Method for preventing or reducing photosensitivity and/or phototoxicity reactions to medications” (priority 1994, dated 1997).

Test system: skin
Conditions: Table 1; cited from earlier work

| SMILES | Action Spectrum | Type of Photoreaction |
| --- | --- | --- |
| CNC1=Nc2ccc(Cl)cc2C(c2ccccc2)=[N+]([O-])C1 [Chlordiazepoxide] | 290-360 nm | Photoallergic |
| CN(C)N=Nc1[nH]cnc1C(N)=O [DTIC] |  | Phototoxic |
| C=C[C@H]1C[N@@]2CC[C@H]1C[C@@H]2[C@@H](O)c1ccnc2ccc(OC)cc12 [Quinidine] |  | Photoallergic |
| O=c1[nH]cc(F)c(=O)[nH]1 [fluorouracil, 5-fluoro-2,4 (1H,3H)-pyrimidinedione] |  | Phototoxic |
| CN(Cc1cnc2nc(N)nc(N)c2n1)c1ccc(C(=O)N[C@@H](CCC(=O)O)C(=O)O)cc1 [methotrexate] |  | Phototoxic |
| CCn1cc(C(=O)O)c(=O)c2ccc(C)nc21 [nalidixic acid] | 320-400 nm |  |
| C=C[C@H]1C[N@@]2CC[C@H]1C[C@H]2[C@H](O)c1ccnc2ccc(OC)cc12 [quinine] |  | Photoallergic |
| CCCCNC(=O)NS(=O)(=O)c1ccc(C)cc1 [tolbutamide] | 290-360 nm |  |
| CC[C@]1(O)C[C@@H]2CN(CCc3c([nH]c4ccccc34)[C@@](C(=O)OC)(c3cc4c(cc3OC)N(C)[C@H]3[C@@](O)(C(=O)OC)[C@H](OC(C)=O)[C@]5(CC)C=CCN6CC[C@]43[C@@H]65)C2)C1 [vinblastine] |  | Phototoxic |

Same assay, conditions: cited from earlier work

| SMILES | Action Spectrum |
| --- | --- |
| C=C[C@H]1C[N@@]2CC[C@H]1C[C@@H]2[C@@H](O)c1ccnc2ccc(OC)cc12 [Quinidine] | 320-400 nm |
| CCCNC(=O)NS(=O)(=O)c1ccc(Cl)cc1 [chlorpropamide] | 290-360 nm |
| COC1=CC(=O)C[C@@H](C)[C@]12Oc1c(Cl)c(OC)cc(OC)c1C2=O [griseofulvin] | 320-400 nm |
| C=C[C@H]1C[N@@]2CC[C@H]1C[C@H]2[C@H](O)c1ccnc2ccc(OC)cc12 [quinine] | 320-400 nm |
